Experimental data from patent publication US8247409B2, “Thieno-[2,3-d]pyrimidine and thieno-pyridazine compounds and methods of use” (Amgen Inc., priority 2006, dated 2012).

These compounds were tested on LPS induced TNF release from monocytes (assay: Lipopolysaccharide-activated Monocyte TNF Production Assay). Settings: Homo sapiens, monocytes activated with LPS, TNF in supernatant by ELISA.
Type: cell-based
Experimental: Lipopolysaccharide-activated Monocyte TNF Production Assay
Test compounds were evaluated in vitro for the ability to inhibit the production of TNF by monocytes activated with bacterial lipopolysaccharide (LPS). Fresh residual source leukocytes (a byproduct of plateletpheresis) were obtained from a local blood bank, and peripheral blood mononuclear cells (PBMCs) were isolated by density gradient centrifugation on Ficol-Paque Plus (Pharmacia). PBMCs were suspended at 2×10^6/mL in DMEM supplemented to contain 2% FCS, 10 mM, 0.3 mg/mL […], 100 U/mL penicillin G and […] streptomycin sulfate (complete media). Cells were plated into Falcon flat bottom, 96 well culture plates (200 μL/well) and cultured overnight at 37° C. and 6% CO2. Non-adherent cells were removed by washing with 200 μL/well of fresh medium. Wells containing adherent cells (˜70% monocytes) were replenished with 100 μL of fresh medium.
Preparation of Test Compound Stock Solutions
Test compounds were dissolved in […]. Compound stock solutions were prepared to an initial concentration of […]. Stocks were diluted initially to 20-200 μM in complete media. Nine two-fold serial dilutions of each compound were then prepared in complete medium.
Treatment of Cells with Test Compounds and Activation of TNF Production with Lipopolysaccharide
One hundred microliters of each test compound dilution were added to microtiter wells containing adherent monocytes and 100 μL complete medium. Monocytes were cultured with test compounds for 60 min at which time 25 μL of complete medium containing 30 ng/mL lipopolysaccharide from E. coli K532 were added to each well. Cells were cultured an additional 4 hrs. Culture supernatants were then removed and TNF presence in the supernatants was quantified using an ELISA.
Flat bottom, 96 well Corning High Binding ELISA plates were coated overnight (4° C.) with 150 μL/well of 3 μg/mL murine anti-human TNF-α MAb (R&D Systems #MAB210). Wells were then blocked for 1 h at room temperature with 200 μL/well of CaCl2-free ELISA buffer supplemented to contain 20 mg/mL BSA (standard ELISA buffer: […], 150 mM NaCl, 2 mM CaCl2, 0.15 mM thimerosal, pH 7.4). Plates were washed and replenished with 100 μL of test supernatants (diluted 1:3) or standards. Standards consisted of eleven 1.5-fold serial dilutions from a stock of 1 ng/mL recombinant human TNF (R&D Systems). Plates were incubated at room temperature for 1 hr on orbital shaker (300 rpm); washed and replenished with 100 μL/well of 0.5 μg/mL goat anti-human TNF-α (R&D systems #AB-210-NA) biotinylated at a 4:1 ratio. Plates were incubated for 40 min, washed and replenished with 100 μL/well of alkaline phosphatase-conjugated streptavidin (Jackson ImmunoResearch #016-050-084) at 0.02 μg/mL. Plates were incubated 30 min, washed and replenished with 200 μL/well of 1 mg/mL of p-nitrophenyl phosphate. After 30 min, plates were read at 405 nm on a Vmax plate reader.
Standard curve data were fit to a second order polynomial and unknown TNF-α concentrations determined from their OD by solving this equation for concentration. TNF concentrations were then plotted vs. test compound concentration using a second order polynomial. This equation was then used to calculate the concentration of test compounds causing a 50% reduction in TNF production.

**Q.** With `COc1c(F)cccc1-c1nncc2cc(-c3cc(C(=O)NC4CC4)ccc3C)sc12` [Example 3, N-cyclopropyl-3-(7-(3-fluoro-2-methoxyphenyl)thieno[2,3-d]pyridazin-2-yl)-4-methylbenzamide] as the compound, how does the IC50 read?
**A.** ≤ 5 µM

**Q.** For `Cc1ccc(C(=O)NC2CC2)cc1-c1cc2cnnc(N3CCNC(=O)C3)c2s1` [Example 6, N-cyclopropyl-4-methyl-3-(7-(3-oxopiperazin-1-yl)thieno[2,3-d]pyridazin-2-yl)benzamide], which IC50 is on record?
**A.** ≤ 5 µM

**Q.** Which IC50 does the source give for `Cc1ccc(C(=O)NC2CC2)cc1-c1cc2cnc(CCN3CCOCC3)nc2s1` [Example 1, N-Cyclopropyl-4-methyl-3-(2-(2-morpholinoethyl)thieno[2,3-d]pyrimidin-6-yl)benzamide] here?
**A.** ≤ 5 µM

**Q.** `Cc1ccc(C(=O)NC2CC2)cc1-c1cc2cnnc(Cl)c2s1` [Example 21, 3-(7-chlorothieno[2,3-d]pyridazin-2-yl)-N-cyclopropyl-4-methylbenzamide] was tested. Which IC50 did it give?
**A.** ≤ 5 µM

**Q.** For `CCNC(=O)c1ccc(C)c(-c2cc3cnc(NCCN4CCOCC4)nc3s2)c1` [Example 9, N-ethyl-4-methyl-3-(2-((2-(4-morpholinyl)ethyl)amino)thieno[2,3-d]pyrimidin-6-yl)benzamide], which IC50 is on record?
**A.** ≤ 5 µM

**Q.** With `Cc1ccc(C(=O)NC2CC2)cc1-c1cc2cnnc(-c3ccc(F)cc3C)c2s1` [Example 22, N-cyclopropyl-3-(7-(4-fluoro-2-methylphenyl)thieno[2,3-d]pyridazin-2-yl)-4-methylbenzamide] as the compound, how does the IC50 read?
**A.** ≤ 5 µM

**Q.** How did the IC50 turn out when `Cc1ccc(C(N)=O)cc1-c1cc2cnnc(-c3ccc(F)cc3C)c2s1` [Example 27, 3-(7-(4-fluoro-2-methylphenyl)thieno[2,3-d]pyridazin-2-yl)-4-methylbenzamide] was run?
**A.** ≤ 5 µM

**Q.** Which IC50 does the source give for `Cc1ccc(C(=O)NC2CC2)cc1-c1cc2cnc(NCC3CCCN(C(=O)OC(C)(C)C)C3)nc2s1` (centres unmarked) [Example 14, 1,1-dimethylethyl 3-(((6-(5-((cyclopropylamino)carbonyl)-2-methylphenyl)thieno[2,3-d]pyrimidin-2-yl)amino)methyl)-1-piperidinecarboxylate] here?
**A.** ≤ 5 µM

**Q.** Which IC50 does the source give for `COc1ncccc1-c1nncc2cc(-c3cc(C(=O)NC4CC4)ccc3C)sc12` [Example 23, N-cyclopropyl-4-methyl-3-(7-(2-(methyloxy)-3-pyridinyl)thieno[2,3-d]pyridazin-2-yl)benzamide] here?
**A.** ≤ 5 µM

**Q.** For `Cc1ccc(C(=O)O)cc1-c1cc2cnc(NCCN3CCOCC3)nc2s1` [Example 10, 4-methyl-3-(2-((2-(4-morpholinyl)ethyl)amino)thieno[2,3-d]pyrimidin-6-yl)benzoic acid], which IC50 is on record?
**A.** ≤ 5 µM

**Q.** `CCN(CC)CCCNc1ncc2cc(-c3cc(C(=O)NC4CC4)ccc3C)sc2n1` [Example 7, N-cyclopropyl-3-(2-((3-(diethylamino)propyl)amino)thieno[2,3-d]pyrimidin-6-yl)-4-methylbenzamide] was tested. Which IC50 did it give?
**A.** ≤ 5 µM
